In brackets after ≈: the same amount, converted by molar mass. Read-outs that look alike come from different tables or passages of the source.
How the values were obtained:
Staph. aureus Smith [1] = assay: In vitro activity (MIC) against Staph. aureus Smith; type: cell-based; details: Staphylococcus aureus; Table 8
E. coli = assay: Range of MIC for E. coli strains; details: for MIC: Escherichia coli
Staph. = assay: Range of MIC for Staph. strains, including MRSA; details: for MIC: Staphylococcus aureus, MRSA
Staph. aureus Smith [2] = assay: In vivo activity (oral, iv; ED50) against Staph. aureus Smith in mice
Method: Representative examples of compounds of Formula I were tested for the oral efficacy using S. aureus Smith in mice.

E. coli GC 2236 = assay: MIC, broth microdilution
E. coli GC 2231 = assay: MIC, broth microdilution
E. coli GC 2235 = assay: MIC, broth microdilution
E. coli GC 2232 = assay: MIC, broth microdilution
E. coli GC 2233 = assay: MIC, broth microdilution
E. coli GC 2234 = assay: MIC, broth microdilution
E. coli GC 2270 = assay: MIC, broth microdilution
E. coli GC 2271 = assay: MIC, broth microdilution
E. coli GC 2272 = assay: MIC, broth microdilution
E. coli GC 4559 = assay: MIC, broth microdilution
Method: (§1) Antimicrobial susceptibility testing. The in vitro activities of the antibiotics are determined by the broth microdilution method as recommended by the National Committee for Clinical Laboratory Standards (NCCLS) (1). Mueller-Hinton II broth (MHBII)(BBL Cockeysville, Md.) is the medium employed in the testing procedures. Microtiter plates containing serial dilutions of each antimicrobial agent are inoculated with each organism to yield the appropriate density (10^5 CFU/ml) in a 100 μl final volume. The plates are incubated for 18-22 hours at 35° C. in ambient air.
(§2) Representative compounds were first incubated in mouse serum for an hour prior to the in vitro testing against a panel of selected gram-positive and gram-negative bacteria strains. All compounds were also pre-incubated in water for an hour prior to testing as control. Representative compounds of Formula I were incubated in human serum prior to MIC determination.

E. coli GC 4560 = assay: MIC, broth microdilution
E. coli GC 6465 = assay: MIC, broth microdilution
E. coli GC 3226 = assay: MIC, broth microdilution
E. coli GC 2203 = assay: MIC, broth microdilution
E. coli GC 1073 = assay: MIC, broth microdilution
Salmonella spp. GC 235 = assay: MIC, broth microdilution
Salmonella spp. GC 566 = assay: MIC, broth microdilution
Method: as §1
Presented in Tables I-XIII are representative compounds of Formula I which were evaluated against a panel of 40 selected gram-positive and gram-negative bacteria strains by pre-incubation in water, mouse serum or human serum. Representative compounds were first incubated in mouse serum for an hour prior to the in vitro testing against a panel of selected gram-positive and gram-negative bacteria strains. All compounds were also pre-incubated in water for an hour prior to testing as control. Representative compounds of Formula I were incubated in human serum prior to MIC determination.

S. cholerasius GC 1355 = assay: MIC, broth microdilution
S. typhimurium GC 2172 = assay: MIC, broth microdilution
P. aeruginosa GC 2214 = assay: MIC, broth microdilution
S. aureus GC 1131 = assay: MIC, broth microdilution
S. aureus GC 6466 = assay: MIC, broth microdilution
S. aureus GC 6467 = assay: MIC, broth microdilution
Method: as §1
(§3) Representative compounds were first incubated in mouse serum for an hour prior to the in vitro testing against a panel of selected gram-positive and gram-negative bacteria strains. All compounds were also pre-incubated in water for an hour prior to testing as control.

S. aureus GC 1079 = assay: MIC, broth microdilution
S. aureus GC 4536 = assay: MIC, broth microdilution
S. aureus GC 2216 = assay: MIC, broth microdilution
S. aureus GC 6335 = assay: MIC, broth microdilution
S. aureus GC 6469 = assay: MIC, broth microdilution
Method: as §1, §3

S. epidermidis GC 4935 = assay: MIC, broth microdilution
Method: as §1, §2

E. faecalis GC 4555 = assay: MIC, broth microdilution
E. faecalis GC 2265 = assay: MIC, broth microdilution
E. faecalis GC 2267 = assay: MIC, broth microdilution
E. faecalis GC 2242 = assay: MIC, broth microdilution
E. faecium GC 4556 = assay: MIC, broth microdilution
E. faecium GC 2243 = assay: MIC, broth microdilution
Method: as §1, §3

S. pneumoniae* GC 4465 = assay: MIC, broth microdilution
Method: as §1, §2

S. pneumoniae+ GC 4465 = assay: MIC, broth microdilution
S. pyogenes GC 4563 = assay: MIC, broth microdilution
S. agalactiae GC 4564 = assay: MIC, broth microdilution
c. albicans GC 3066 = assay: MIC, broth microdilution

CCCN(CC(=O)Nc1cc(N(C)C)c2c(c1O)C(=O)C1=C(O)[C@]3(O)C(=O)C(C(N)=O)=C(O)[C@@H](N(C)C)[C@@H]3C[C@@H]1C2)C(=O)OCOC(=O)CC1CCCC1 [Example 40, ({[(2-{[(5aR,6aS,7S,10aS)-9-(aminocarbonyl)-4,7-bis(dimethylamino)-1,8,10a,11-tetrahydroxy-10,12-dioxo-5,5a,6,6a,7,10,10a,12-octahydrotetracen-2-yl]amino}-2-oxoethyl)(propyl)amino]carbonyl}oxy)methyl cyclopentylacetate]
MIC (Staph. aureus Smith [1]): 0.5 µg/mL (≈ 0.662 µM) | MIC (E. coli; 20 h, read-out: Range of MIC, E. coli (Mouse Serum)): 1 to 2 µg/mL (≈ 1.32 to 2.65 µM) | MIC (E. coli; read-out: Range of MIC, E. coli (mouse serum)): 1 to 2 µg/mL (≈ 1.32 to 2.65 µM) | MIC (Staph.; read-out: Range of MIC, Staph (Mouse Serum)): 0.25 to 2 µg/mL (≈ 0.331 to 2.65 µM) | MIC (Staph.; read-out: Range of MIC, Staph (Water)): 0.25 to 2 µg/mL (≈ 0.331 to 2.65 µM) | MIC (Staph.; read-out: Range of MIC, Staph. (mouse serum)): 0.25 to 2 µg/mL (≈ 0.331 to 2.65 µM) | MIC (Staph.; read-out: Range of MIC, Staph. (water)): 0.25 to 2 µg/mL (≈ 0.331 to 2.65 µM) | ED50 (Staph. aureus Smith [2]; Staphylococcus aureus, in Mus musculus, iv, read-out: ED50 SIV (Staph aureus Smith)): 0.39 mg/kg | ED50 (Staph. aureus Smith [2]; Staphylococcus aureus, in Mus musculus, po, read-out: ED50 SOD (Staph aureus Smith)): 4.65 mg/kg | ED50 (Staph. aureus Smith [2]; Staphylococcus aureus, in Mus musculus, po, read-out: ED50 Staph Smith SOD): 4.65 mg/kg | ED50 (Staph. aureus Smith [2]; iv, read-out: ED50 Staph Smith SIV): 0.39 mg/kg

CCCN(CC(=O)Nc1cc(N(C)C)c2c(c1O)C(=O)C1=C(O)[C@@]3(O)C(=O)C(C(N)=O)=C(O)[C@@H](N(C)C)C3CC1C2)C(=O)OCc1oc(=O)oc1C (stereo partly drawn) [Example 108, (5-methyl-2-oxo-1,3-dioxol-4-yl)methyl 2-{[(7S,10aR)-9-(aminocarbonyl)-4,7-bis(dimethylamino)-1,8,10a,11-tetrahydroxy-10,12-dioxo-5,5a,6,6a,7,10,10a,12-octahydrotetracen-2-yl]amino}-2-oxoethyl(propyl)carbamate]
MIC (E. coli GC 2236; pre-incubation in mouse serum): 0.50 UG/ML | MIC (E. coli GC 2236; pre-incubation in water): 2 UG/ML | MIC (E. coli GC 2231; pre-incubation in mouse serum): 2 UG/ML | MIC (E. coli GC 2231; pre-incubation in water): 4 UG/ML | MIC (E. coli GC 2235; pre-incubation in mouse serum): 0.50 UG/ML | MIC (E. coli GC 2235; pre-incubation in water): 1 UG/ML | MIC (E. coli GC 2232; pre-incubation in mouse serum): 1 UG/ML | MIC (E. coli GC 2232; pre-incubation in water): 2 UG/ML | MIC (E. coli GC 2233; pre-incubation in mouse serum): 0.50 UG/ML | MIC (E. coli GC 2233; pre-incubation in water): 1 UG/ML | MIC (E. coli GC 2234; pre-incubation in mouse serum): 0.50 UG/ML | MIC (E. coli GC 2234; pre-incubation in water): 2 UG/ML | MIC (E. coli GC 2270; pre-incubation in mouse serum): 0.50 UG/ML | MIC (E. coli GC 2270; pre-incubation in water): 1 UG/ML | MIC (E. coli GC 2271; pre-incubation in mouse serum): 0.50 UG/ML | MIC (E. coli GC 2271; pre-incubation in water): 0.50 UG/ML | MIC (E. coli GC 2272; pre-incubation in mouse serum): 0.25 UG/ML | MIC (E. coli GC 2272; pre-incubation in water): 0.50 UG/ML | MIC (E. coli GC 4559; pre-incubation in mouse serum): 0.50 UG/ML | MIC (E. coli GC 4559; pre-incubation in water): 1 UG/ML | MIC (E. coli GC 4560; pre-incubation in mouse serum): 0.12 UG/ML | MIC (E. coli GC 4560; pre-incubation in water): 0.25 UG/ML | MIC (E. coli GC 6465; pre-incubation in mouse serum): 8 UG/ML | MIC (E. coli GC 6465; pre-incubation in water): 64 UG/ML | MIC (E. coli GC 3226; pre-incubation in mouse serum): 0.50 UG/ML | MIC (E. coli GC 3226; pre-incubation in water): 1 UG/ML | MIC (E. coli GC 2203; pre-incubation in mouse serum): 0.50 UG/ML | MIC (E. coli GC 2203; pre-incubation in water): 1 UG/ML | MIC (E. coli GC 1073; pre-incubation in mouse serum): 0.50 UG/ML | MIC (E. coli GC 1073; pre-incubation in water): 2 UG/ML | MIC (Salmonella spp. GC 235; pre-incubation in mouse serum): 1 UG/ML | MIC (Salmonella spp. GC 235; pre-incubation in water): 4 UG/ML | MIC (Salmonella spp. GC 566; pre-incubation in mouse serum): 1 UG/ML | MIC (Salmonella spp. GC 566; pre-incubation in water): 8 UG/ML | MIC (S. cholerasius GC 1355; pre-incubation in mouse serum): 32 UG/ML | MIC (S. cholerasius GC 1355; pre-incubation in water): 64 UG/ML | MIC (S. typhimurium GC 2172; pre-incubation in mouse serum): 4 UG/ML | MIC (S. typhimurium GC 2172; pre-incubation in water): 32 UG/ML | MIC (P. aeruginosa GC 2214; pre-incubation in mouse serum): 16 UG/ML | MIC (P. aeruginosa GC 2214; pre-incubation in water): 32 UG/ML | MIC (S. aureus GC 1131; pre-incubation in mouse serum): 0.25 UG/ML | MIC (S. aureus GC 1131; pre-incubation in water): 0.50 UG/ML | MIC (S. aureus GC 6466; pre-incubation in mouse serum): 0.50 UG/ML | MIC (S. aureus GC 6466; pre-incubation in water): 1 UG/ML | MIC (S. aureus GC 6467; pre-incubation in mouse serum): 2 UG/ML | MIC (S. aureus GC 6467; pre-incubation in water): 8 UG/ML | MIC (S. aureus GC 1079; pre-incubation in mouse serum): 2 UG/ML | MIC (S. aureus GC 1079; pre-incubation in water): 4 UG/ML | MIC (S. aureus GC 4536; pre-incubation in mouse serum): 0.50 UG/ML | MIC (S. aureus GC 4536; pre-incubation in water): 1 UG/ML | MIC (S. aureus GC 2216; pre-incubation in mouse serum): 0.50 UG/ML | MIC (S. aureus GC 2216; pre-incubation in water): 1 UG/ML | MIC (S. aureus GC 6335; pre-incubation in mouse serum): 1 UG/ML | MIC (S. aureus GC 6335; pre-incubation in water): 2 UG/ML | MIC (S. aureus GC 6469; pre-incubation in mouse serum): 0.25 UG/ML | MIC (S. aureus GC 6469; pre-incubation in water): 1 UG/ML | MIC (S. epidermidis GC 4935; pre-incubation in mouse serum): 1 UG/ML | MIC (S. epidermidis GC 4935; pre-incubation in water): 2 UG/ML | MIC (E. faecalis GC 4555; pre-incubation in mouse serum): 0.50 UG/ML | MIC (E. faecalis GC 4555; pre-incubation in water): 0.50 UG/ML | MIC (E. faecalis GC 2265; pre-incubation in mouse serum): 1 UG/ML | MIC (E. faecalis GC 2265; pre-incubation in water): 2 UG/ML | MIC (E. faecalis GC 2267; pre-incubation in mouse serum): 1 UG/ML | MIC (E. faecalis GC 2267; pre-incubation in water): 2 UG/ML | MIC (E. faecalis GC 2242; pre-incubation in mouse serum): 0.50 UG/ML | MIC (E. faecalis GC 2242; pre-incubation in water): 1 UG/ML | MIC (E. faecium GC 4556; pre-incubation in mouse serum): 0.50 UG/ML | MIC (E. faecium GC 4556; pre-incubation in water): 1 UG/ML | MIC (E. faecium GC 2243; pre-incubation in mouse serum): 0.50 UG/ML | MIC (E. faecium GC 2243; pre-incubation in water): 0.50 UG/ML | MIC (S. pneumoniae* GC 4465; pre-incubation in mouse serum): 0.12 UG/ML | MIC (S. pneumoniae* GC 4465; pre-incubation in water): 0.12 UG/ML | MIC (S. pneumoniae+ GC 4465; pre-incubation in mouse serum): 1 UG/ML | MIC (S. pneumoniae+ GC 4465; pre-incubation in water): 2 UG/ML | MIC (S. pyogenes GC 4563; pre-incubation in mouse serum): 0.12 UG/ML | MIC (S. pyogenes GC 4563; pre-incubation in water): 0.12 UG/ML | MIC (S. agalactiae GC 4564; pre-incubation in mouse serum): 0.12 UG/ML | MIC (S. agalactiae GC 4564; pre-incubation in water): 0.12 UG/ML | MIC (c. albicans GC 3066; pre-incubation in mouse serum): >64 UG/ML | MIC (c. albicans GC 3066; pre-incubation in water): >64 UG/ML | Range of MIC, E. coli (Mouse Serum) (E. coli; Mouse Serum, Table 1): 0.5 to 2 µg/mL | Range of MIC, E. coli (Water) (E. coli; Water, Table 1): 0.5 to 4 µg/mL | Range of MIC, Staph (Mouse Serum) (Staph.; Mouse Serum, including MRSA, Table 1): 0.25 to 2 µg/mL | Range of MIC, Staph (Water) (Staph.; Water, including MRSA, Table 1): 1 to 8 µg/mL | ED50 Staph Smith SIV (Staph. aureus Smith [2]; single intravenous dose (SIV)): >2 mg/kg | ED50 Staph Smith SOD (Staph. aureus Smith [2]; single oral dose (SOD)): >32 mg/kg

From patent publication US20070049564A1 (Wyeth, priority 2005, published 2007)
